Like-named read-outs stand apart in the source and are kept apart here.
How the values were obtained:
STAT5 = experiment: Immunoblotting (Western blot) analysis of STAT5 degradation efficiency of degraders in treated cells; format: cell-based
How it was run: (§1)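 Protein levels of STAT5 and STAT6 were assessed in cells cultured at 37 °C in 10% FBS medium after compound exposure, by quantitative fluorescent Western blotting normalised to equal loading and referenced to GAPDH.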

STAT6 = target: T1, STAT6 (Homo sapiens, UniProt P42226); experiment: Immunoblotting (Western blot) analysis of STAT6 degradation efficiency of degraders in treated cells; format: cell-based
T1 construct: endogenous in cells; host or cells: MOLM-16, KU-812, SKNO1, MB231, L1236
T1 sequence (P42226 1-847): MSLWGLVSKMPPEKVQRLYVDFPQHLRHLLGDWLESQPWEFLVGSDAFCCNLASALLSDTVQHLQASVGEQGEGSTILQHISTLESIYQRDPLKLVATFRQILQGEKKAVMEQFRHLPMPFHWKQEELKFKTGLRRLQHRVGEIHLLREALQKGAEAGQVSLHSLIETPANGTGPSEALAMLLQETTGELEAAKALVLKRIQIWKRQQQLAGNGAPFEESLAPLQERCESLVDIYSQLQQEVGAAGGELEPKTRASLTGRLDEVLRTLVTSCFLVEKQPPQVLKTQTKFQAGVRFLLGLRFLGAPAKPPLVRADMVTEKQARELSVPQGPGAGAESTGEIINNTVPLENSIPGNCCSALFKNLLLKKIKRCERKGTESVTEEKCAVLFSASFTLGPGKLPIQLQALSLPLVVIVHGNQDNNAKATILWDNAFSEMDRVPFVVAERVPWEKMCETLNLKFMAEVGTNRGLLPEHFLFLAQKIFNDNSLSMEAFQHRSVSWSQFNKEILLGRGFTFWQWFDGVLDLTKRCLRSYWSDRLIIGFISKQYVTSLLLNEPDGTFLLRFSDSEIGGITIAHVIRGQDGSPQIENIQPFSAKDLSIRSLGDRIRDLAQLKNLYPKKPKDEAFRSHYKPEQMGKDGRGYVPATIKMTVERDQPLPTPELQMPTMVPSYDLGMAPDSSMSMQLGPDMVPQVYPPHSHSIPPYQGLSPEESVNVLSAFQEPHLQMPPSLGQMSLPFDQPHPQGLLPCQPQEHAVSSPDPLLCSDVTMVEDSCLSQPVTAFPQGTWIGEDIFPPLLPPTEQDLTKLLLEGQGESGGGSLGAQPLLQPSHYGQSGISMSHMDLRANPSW
How it was run: as §1

[1] = SKNO1 cells, read-out: DC50 S5 SKNO1
[2] = L1236 cells, read-out: DC50 S6 L1236
[3] = MB231 cells, read-out: DC50 S6 MB231
[4] = KU-812 cells, read-out: DC50 S5 KU-812
[5] = MOLM-16 cells, class symbols, read-out: DC50 S5 MOLM-16
[6] = MOLM-16 cells, numeric bound, read-out: DC50 S6 MOLM-16
[7] = MOLM-16 cells, numeric bound, read-out: DC50 S5 MOLM-16

DC50 (STAT5; [1]) [nM]	DC50 (STAT6; [2]) [nM]	DC50 (STAT6; [3]) [nM]	DC50 (STAT5; [4]) [nM]	DC50 (STAT5; [5]) [nM]	DC50 (STAT6; [6]) [nM]	DC50 (STAT6; MOLM-16 cells, class symbols, read-out: DC50 S6 MOLM-16) [nM]	SMILES	DC50 (STAT5; [7]) [nM]
> 10000	> 10000	> 10000	–	–	–	–	CN(C(=O)[C@@H]1C[C@@H](OCC(=O)NCCCCCCC#Cc2cccc3c2CN(C2CCC(=O)NC2=O)C3=O)CN1C(=O)[C@@H](NC(=O)c1cc2cc(C(F)(F)P(=O)(O)O)ccc2s1)C(C)(C)C)c1ccc(Br)cc1 (stereo partly drawn) [Compound 413, ((2-(((2S)-1-((2S,4R)-2-((4-bromophenyl)(methyl)carbamoyl)-4-(2-((8-(2-(2,6-dioxopiperidin-3-yl)-1-oxoisoindolin-4-yl)oct-7-yn-1-yl)amino)-2-oxoethoxy)pyrrolidin-1-yl)-3,3-dimethyl-1-oxobutan-2-yl)carbamoyl)benzo[b]thiophen-5-yl)difluoromethyl)phosphonic acid]	–
> 10000	> 10000	> 10000	–	–	–	–	CN(C(=O)[C@@H]1C[C@@H](OCC(=O)NCCCC#Cc2cccc3c2CN(C2CCC(=O)NC2=O)C3=O)CN1C(=O)[C@@H](NC(=O)c1cc2cc(C(F)(F)P(=O)(O)O)ccc2s1)C(C)(C)C)c1ccc(Br)cc1 (stereo partly drawn) [Compound 411, ((2-(((2S)-1-((2S,4R)-2-((4-bromophenyl)(methyl)carbamoyl)-4-(2-((5-(2-(2,6-dioxopiperidin-3-yl)-1-oxoisoindolin-4-yl)pent-4-yn-1-yl)amino)-2-oxoethoxy)pyrrolidin-1-yl)-3,3-dimethyl-1-oxobutan-2-yl)carbamoyl)benzo[b]thiophen-5-yl)difluoromethyl)phosphonic acid]	–
100 to 1000	–	–	100 to 1000	< 100	> 300	–	CC(C)(C)[C@H](NC(=O)c1cc2cc(C(F)(F)P(=O)(O)O)ccc2s1)C(=O)N1CCC[C@H]1C(=O)N(CCC(=O)NCCCC#Cc1cccc2c1CN(C1CCC(=O)NC1=O)C2=O)c1ccc2ccccc2c1 (stereo partly drawn) [Compound 656, ((2-(((2S)-1-((2S)-2-((3-((5-(2-(2,6-dioxopiperidin-3-yl)-1-oxoisoindolin-4-yl)pent-4-yn-1-yl)amino)-3-oxopropyl)(naphthalen-2-yl)carbamoyl)pyrrolidin-1-yl)-3,3-dimethyl-1-oxobutan-2-yl)carbamoyl)benzo[b]thiophen-5-yl)difluoromethyl)phosphonic acid]	–
> 10000	–	–	> 10000	–	–	> 10000	CC(C)(C)[C@H](NC(=O)c1cc2cc(C(F)(F)P(=O)(O)O)ccc2s1)C(=O)N1CCC[C@H]1C(=O)N(CCC(=O)NCCC#Cc1cccc2c1CN(C1CCC(=O)NC1=O)C2=O)c1ccc(Br)cc1 (stereo partly drawn) [Compound 614, ((2-(((2S)-1-((2S)-2-((4-bromophenyl)(3-((4-(2-(2,6-dioxopiperidin-3-yl)-1-oxoisoindolin-4-yl)but-3-yn-1-yl)amino)-3-oxopropyl)carbamoyl)pyrrolidin-1-yl)-3,3-dimethyl-1-oxobutan-2-yl)carbamoyl)benzo[b]thiophen-5-yl)difluoromethyl)phosphonic acid]	> 300
> 10000	> 10000	> 10000	–	–	–	–	CN(C(=O)[C@@H]1C[C@@H](OCC(=O)NCCCCCCCCC#Cc2cccc3c2CN(C2CCC(=O)NC2=O)C3=O)CN1C(=O)[C@@H](NC(=O)c1cc2cc(C(F)(F)P(=O)(O)O)ccc2s1)C(C)(C)C)c1ccc(Br)cc1 (stereo partly drawn) [Compound 414, ((2-(((2S)-1-((2S,4R)-2-((4-bromophenyl)(methyl)carbamoyl)-4-(2-((10-(2-(2,6-dioxopiperidin-3-yl)-1-oxoisoindolin-4-yl)dec-9-yn-1-yl)amino)-2-oxoethoxy)pyrrolidin-1-yl)-3,3-dimethyl-1-oxobutan-2-yl)carbamoyl)benzo[b]thiophen-5-yl)difluoromethyl)phosphonic acid]	–
100 to 1000	–	–	100 to 1000	< 100	> 300	–	CC(C)(C)[C@H](NC(=O)c1cc2cc(C(F)(F)P(=O)(O)O)ccc2s1)C(=O)N1CCC[C@H]1C(=O)N(CCC(=O)NCCCC#Cc1cccc2c1CN(C1CCC(=O)NC1=O)C2=O)c1ccc(-c2nccs2)cc1 (stereo partly drawn) [Compound 655, ((2-(((2S)-1-((2S)-2-((3-((5-(2-(2,6-dioxopiperidin-3-yl)-1-oxoisoindolin-4-yl)pent-4-yn-1-yl)amino)-3-oxopropyl)(4-(thiazol-2-yl)phenyl)carbamoyl)pyrrolidin-1-yl)-3,3-dimethyl-1-oxobutan-2-yl)carbamoyl)benzo[b]thiophen-5-yl)difluoromethyl)phosphonic acid]	–
–	–	–	–	–	> 300	–	O=C(CCN(C(=O)CN1CCCC[C@H](NC(=O)c2cc3cc(C(F)(F)P(=O)(O)O)ccc3s2)C1=O)c1ccc(Br)cc1)NCCCC#Cc1cccc2c1CN(C1CCC(=O)NC1=O)C2=O (stereo partly drawn) [Compound 664, ((2-(((3S)-1-(2-((4-bromophenyl)(3-((5-(2-(2,6-dioxopiperidin-3-yl)-1-oxoisoindolin-4-yl)pent-4-yn-1-yl)amino)-3-oxopropyl)amino)-2-oxoethyl)-2-oxoazepan-3-yl)carbamoyl)benzo[b]thiophen-5-yl)difluoromethyl)phosphonic acid]	> 300
–	–	–	–	100 to 1000	> 300	–	CN(CCCC#Cc1cccc2c1CN(C1CCC(=O)NC1=O)C2=O)C(=O)CCN(C(=O)[C@@H]1CCCN1C(=O)[C@@H](NC(=O)c1cc2cc(C(F)(F)P(=O)(O)OCOC(=O)C(C)(C)C)ccc2s1)C(C)(C)C)c1ccc2cc(F)ccc2c1 (stereo partly drawn) [Compound 675, ((((2-(((2S)-1-((2S)-2-((3-((5-(2-(2,6-dioxopiperidin-3-yl)-1-oxoisoindolin-4-yl)pent-4-yn-1-yl)(methyl)amino)-3-oxopropyl)(6-fluoronaphthalen-2-yl)carbamoyl)pyrrolidin-1-yl)-3,3-dimethyl-1-oxobutan-2-yl)carbamoyl)benzo[b]thiophen-5-yl)difluoromethyl)(hydroxy)phosphoryl)oxy)methyl pivalate]	–

SMILES	DC50 (STAT5; [1]) [nM]	DC50 (STAT6; [2]) [nM]	DC50 (STAT6; [3]) [nM]	DC50 (STAT5; [4]) [nM]	DC50 (STAT5; [5]) [nM]	DC50 (STAT6; [6]) [nM]	DC50 (STAT6; MOLM-16 cells, class symbols, read-out: DC50 S6 MOLM-16) [nM]	DC50 (STAT5; [7]) [nM]
Cc1ncsc1-c1ccc([C@H](CC(=O)NCCOCCOCCOCCC(=O)N[C@@H]2C[C@@H](C(=O)Nc3ncc(-c4ccccc4)s3)N(C(=O)[C@@H](NC(=O)c3cc4cc(C(F)(F)P(=O)(O)O)ccc4s3)C(C)(C)C)C2)NC(=O)[C@@H]2C[C@@H](O)CN2C(=O)[C@@H](NC(=O)C2(F)CC2)C(C)(C)C)cc1 [Compound 582, (difluoro(2-(((S)-1-((2S,4R)-4-((S)-1-((2S,4R)-1-((S)-2-(1-fluorocyclopropane-1-carboxamido)-3,3-dimethylbutanoyl)-4-hydroxypyrrolidin-2-yl)-3-(4-(4-methylthiazol-5-yl)phenyl)-1,5-dioxo-9,12,15-trioxa-2,6-diazaoctadecan-18-amido)-2-((5-phenylthiazol-2-yl)carbamoyl)pyrrolidin-1-yl)-3,3-dimethyl-1-oxobutan-2-yl)carbamoyl)benzo[b]thiophen-5-yl)methyl)phosphonic acid]	–	–	–	–	–	> 300	–	> 300
CC(C)(C)[C@H](NC(=O)c1cc2cc(C(F)(F)P(=O)(O)O)ccc2s1)C(=O)N1CCC[C@H]1C(=O)N1C[C@@H](Oc2ccc3ccccc3c2)C[C@H]1C(=O)NCCCC#Cc1cccc2c1CN(C1CCC(=O)NC1=O)C2=O (stereo partly drawn) [Compound 659, ((2-(((2S)-1-((2S)-2-((2S,4S)-2-((5-(2-(2,6-dioxopiperidin-3-yl)-1-oxoisoindolin-4-yl)pent-4-yn-1-yl)carbamoyl)-4-(naphthalen-2-yloxy)pyrrolidine-1-carbonyl)pyrrolidin-1-yl)-3,3-dimethyl-1-oxobutan-2-yl)carbamoyl)benzo[b]thiophen-5-yl)difluoromethyl)phosphonic acid]	–	–	–	–	–	> 300	–	> 300
Cc1ncsc1-c1ccc([C@H](CC(=O)NCCCCCCCCCC(=O)N[C@@H]2C[C@@H](C(=O)Nc3ncc(-c4ccccc4)s3)N(C(=O)[C@@H](NC(=O)c3cc4cc(C(F)(F)P(=O)(O)O)ccc4s3)C(C)(C)C)C2)NC(=O)[C@@H]2C[C@@H](O)CN2C(=O)[C@@H](NC(=O)C2(F)CC2)C(C)(C)C)cc1 [Compound 579, (difluoro(2-(((S)-1-((2S,4R)-4-(10-((S)-3-((2S,4R)-1-((S)-2-(1-fluorocyclopropane-1-carboxamido)-3,3-dimethylbutanoyl)-4-hydroxypyrrolidine-2-carboxamido)-3-(4-(4-methylthiazol-5-yl)phenyl)propanamido)decanamido)-2-((5-phenylthiazol-2-yl)carbamoyl)pyrrolidin-1-yl)-3,3-dimethyl-1-oxobutan-2-yl)carbamoyl)benzo[b]thiophen-5-yl)methyl)phosphonic acid]	–	–	–	–	–	> 300	–	> 300

From patent publication US20230295197A1, “STAT5 and STAT6 Degraders and Uses Thereof” (REGENTS OF THE UNIVERSITY OF MICHICAN, priority 2022, published 2023)
